Data published in ChEMBL document CHEMBL1151649, “Modified smear method for screening potential inhibitors of platelet aggregation from plant sources” (1985).

What was measured:
Type in all cases: functional
[1] = Antiplatelet activity in Sprague-Dawley rat platelet-rich plasma assessed as minimum drug level causing inhibition of collagen-induced platelet aggregation administered 2 mins before collagen challenge by modified smear method
[2] = Antiplatelet activity in Sprague-Dawley rat platelet-rich plasma assessed as minimum drug level causing inhibition of ADP-induced platelet aggregation administered 2 mins before ADP challenge by modified smear method
[3] = Antiplatelet activity in Sprague-Dawley rat platelet-rich plasma assessed as minimum drug level causing inhibition of arachidonic acid-induced platelet aggregation administered 2 mins before arachidonic acid challenge by modified smear method

SMILES | Activity [1] [µg/mL] | Activity [2] [µg/mL] | Activity [3] [µg/mL]
CC(=O)Oc1ccccc1C(=O)O [ASPIRIN] | 250 | 1000 | 50
COc1ccc(Cc2nccc3cc(OC)c(OC)cc23)cc1OC [PAPAVERINE] | 25 | 100 | 10
